The target in data set [1] is T1, SXR (Homo sapiens, UniProt O75469).
T1 sequence (O75469 1-434): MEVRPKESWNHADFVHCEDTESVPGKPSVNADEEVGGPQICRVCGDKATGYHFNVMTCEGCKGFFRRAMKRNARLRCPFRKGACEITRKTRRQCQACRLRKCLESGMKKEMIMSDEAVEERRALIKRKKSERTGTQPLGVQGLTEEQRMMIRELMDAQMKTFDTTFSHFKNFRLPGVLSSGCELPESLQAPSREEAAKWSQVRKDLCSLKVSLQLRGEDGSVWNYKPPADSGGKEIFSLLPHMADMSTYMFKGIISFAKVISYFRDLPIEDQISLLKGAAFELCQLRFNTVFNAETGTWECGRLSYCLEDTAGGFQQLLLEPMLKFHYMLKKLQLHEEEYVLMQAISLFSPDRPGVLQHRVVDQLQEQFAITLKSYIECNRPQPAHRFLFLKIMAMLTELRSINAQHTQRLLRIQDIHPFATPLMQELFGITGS
The text has this: (§1) The reporter gene comprises a thymadine kinase (TK) linked to UGT1A6/DR-3 linked to a luciferace (LUC).
(§2) In an exemplary assay, a luciferase reporter gene containing the UGT1A6/DR-3 upstream of a minimal thymidine kinase (tk) promoter was constructed and transfected into monkey kidney CV-1 cells together with expression vectors for SXR, PXR, or CAR.
(§3) In FIG. 2, the tk-UGT1A6/DR3-Luc construct comprises a UGT inverted or direct repeat and/or a nuclear receptor binding site such that activation of the response element results in transcription of UGT. […] The response element can also comprise an inverse repeat of a suitable half site separated by a 6 nucleotide spacer, or an inverse repeat of a variant thereof, separated by a 6 nucleotide spacer.

In data set [2] the target is T2, PXR (Mus musculus, UniProt O54915).
T2 sequence (O54915 1-431): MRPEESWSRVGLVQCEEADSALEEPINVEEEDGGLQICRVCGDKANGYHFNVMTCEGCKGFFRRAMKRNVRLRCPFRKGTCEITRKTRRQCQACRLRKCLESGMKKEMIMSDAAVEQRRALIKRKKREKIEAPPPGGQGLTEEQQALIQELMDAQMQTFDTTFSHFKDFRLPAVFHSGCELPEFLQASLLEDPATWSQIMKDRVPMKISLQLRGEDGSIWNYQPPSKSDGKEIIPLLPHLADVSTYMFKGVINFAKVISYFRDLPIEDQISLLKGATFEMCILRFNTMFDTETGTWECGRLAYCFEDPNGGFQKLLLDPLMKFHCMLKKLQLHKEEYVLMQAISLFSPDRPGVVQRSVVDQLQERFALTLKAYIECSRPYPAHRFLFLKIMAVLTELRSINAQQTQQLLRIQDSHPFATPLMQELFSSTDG
Particulars: tk-UGT1A6/DR-3-Luc, CV-1 cells.
Description: as §1, §2, §3

Data set [3] has as its system rat CYP3A23 gene cellular promoter. On the procedure:
(§4) The PCR-amplified sequences and target mutagenesis were confirmed by DNA sequencing.
(§5) All compounds were purchased from Sigma.
The above notion would predict: (1) The SXR/PXR response element is essential for the activation of CYP3A genes; and (2) The response elements of SXR and PXR are interchangeable. Therefore, mutagenesis analysis was performed on the promoter of the rat CYP3A23 gene to examine these predictions.

In data set [4] the test system is SXR. In words: Activation of SXR in transfection-based assays. On the procedure:
To characterize its response properties, a large variety of steroids, including intermediate and major products of known steroid biosynthetic pathways were tested.

The target of data set [5] is T2, PXR. In words: Activation of mouse receptor PXR by the panel of compounds.
A further data set has as its system CYP3A11 gene. The conditions noted are these: mouse, in vivo. The protocol: The animals were allowed free access to food and water at all times. […] When necessary, mice were treated with a single intraperitoneal injection of DEX (50 mg/kg), PCN (40 mg/kg), or CTZ (50 mg/kg).
To examine the drug response of the endogenous liver CYP3A11 gene, animals were treated with single dose of compounds 24 h before sacrifice, and the CYP3A11 gene expression was evaluated by Northern blot analysis on liver total RNA. […] To detect specific transcripts, [^32P]-cDNA probes labeled by Random Primer Labeling Kit (Boringher) were hybridized to the membranes. The probe used to detect transgene contains both the SXR cDNA and the SV40 sequences. […] The filters were subsequently stripped and rehybridized with a murine glyceraldehyde-3-phosphate dehydrogenase (GAPDH) cDNA probe for RNA loading normalization.
Tissues were harvested 24 h later and subjected to Northern blot analysis. Membranes were probed with CYP3A11 cDNA probe, and were subsequently stripped and re-probed with GAPDH and transgene specific probes.

The subject of data set [6] is human CYP3A4 gene cellular promoter. The conditions noted are these: hepatocytes.
Description: as §4, §5

With `Clc1ccccc1C(c1ccccc1)(c1ccccc1)n1ccnc1` [CTZ, clotrimazole], the “activation of the UGT reporter by SXR” value at SXR [1] is “Significant activation”. Moreover, the “PXR-mediated UGT activation” value on PXR [2] is recorded as “activation was seen”. Moreover, in data set [3], the “PXR and/or SXR-mediated activation of mutated CYP3A23 promoter” value is given as “abolished”, the “inducibility of CYP3A23 promoter with DR-3 replaced by IR-6” value is reported as “successfully rescue the inducibility” and the “induction of CYP3A23 cellular promoter reporter” value is reported as “significant induction”.
As to `CC(=O)[C@H]1[C@H](C#N)C[C@H]2[C@@H]3CC=C4C[C@@H](O)CC[C@]4(C)[C@H]3CC[C@@]21C` [PCN, pregnenolone-16-carbonitrile], the “activation of SXR by compounds known to induce CYP3A4” value in the data set on SXR [4] is recorded as “weak activator”. The “SXR activation of DR-3, DR-4 and DR-5 elements” value with SXR [4] (series of transfections) was “among the best activators”. The “activation of SXR” value in the data set on SXR [4] (transfection-based assays, steroids tested) was “activated”. For the same molecule, the “activation of PXR” value on PXR [5] is “preferentially activated”. In the data set with CYP3A11 gene, the “induction of liver CYP3A11 expression” value is given as “equally efficacious”. The “PXR-mediated UGT activation” value at PXR [2] is “activation was seen”. For the same molecule, the “activation of CYP3A4 cellular promoter reporter” value in data set [6] was “can be activated”. Besides, in data set [3], the “PXR and/or SXR-mediated activation of mutated CYP3A23 promoter” value is listed as “abolished”; the “activation of CYP3A23 cellular promoter reporter” value is “most potent and efficacious tested activators”; the “inducibility of CYP3A23 promoter with DR-3 replaced by IR-6” value was “successfully rescue the inducibility”; the “induction of CYP3A23 cellular promoter reporter” value was “remained unchanged”.

Source of the values: patent US7413853B2, “Modulation of metabolism of steroids and xenobiotics” (The Salk Institute for Biological Studies, priority 2001, dated 2008).
